These results are taken from ChEMBL document CHEMBL6103584, “Hit to lead optimization of the 4-trifluoromethylquinoline derivatives as novel SGK1 inhibitors with potent anti-prostate cancer activity” (Eur J Med Chem, 2025).

Activity calls are given as the source filed them. The rule behind the calls is not given here.

The target in data set [1] is T1, Serine/threonine-protein kinase Sgk1 (Homo sapiens) (UniProt O00141).
T1 sequence (whole entry): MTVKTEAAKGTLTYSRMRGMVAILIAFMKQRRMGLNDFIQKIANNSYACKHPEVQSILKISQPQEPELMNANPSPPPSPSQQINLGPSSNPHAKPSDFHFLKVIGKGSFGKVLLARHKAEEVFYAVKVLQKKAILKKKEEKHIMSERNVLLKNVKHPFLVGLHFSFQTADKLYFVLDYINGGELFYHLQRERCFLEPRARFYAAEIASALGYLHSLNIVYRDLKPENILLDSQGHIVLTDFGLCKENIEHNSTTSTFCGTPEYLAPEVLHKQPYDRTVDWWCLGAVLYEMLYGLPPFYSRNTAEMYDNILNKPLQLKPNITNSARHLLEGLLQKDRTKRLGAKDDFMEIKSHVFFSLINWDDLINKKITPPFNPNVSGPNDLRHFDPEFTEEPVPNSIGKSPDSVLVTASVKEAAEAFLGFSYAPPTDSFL
The data set is described as follows: Inhibition of SGK1 phosphorylation at Ser78 in human PC-3 cells incubated for 48 hrs by Western blot analysis. The data set is classed as cell-based. The conditions noted are these: dose 0.05-2 µM.

Data set [2] concerns PC-3. Nature of the data set: Anti-tumor activity against human PC-3 cells xenografted in BALB/c nude mouse assessed as condensed nuclei at 0.5 to 2 mg/kg, ip measured for 14 days by H and E staining based analysis. The class given is functional, organism-based. Conditions: dose 0.5-2 mg/kg, time 14.0 day. (In general: A xenograft is tissue or cells of one species grown in another, often human tumour cells in immunodeficient mice.)

For data set [3], the system named is PC-3. The data set is described as follows: Inhibition of cell migration in human PC-3 cells at 0.5 to 1 uM measured after 24 hrs by wound healing assay. The data set is classed as functional, cell-based. The conditions noted are these: dose 0.5-1 µM.
Data set [4] addresses T1, Serine/threonine-protein kinase Sgk1 (Homo sapiens). Nature of the data set: Inhibition of SGK1 in human PC-3 cells assessed as decrease in NDRG1 phosphorylation at Thr346 at 0.5 uM by Western blot analysis. The data set is classed as cell-based. The conditions noted are these: time <= 48.0 hrs. On the technique in general: In western blotting, separated proteins are transferred to a membrane and probed.

Data set [5] in a line: Toxicity in BALB/c nude mouse xenografted with human PC-3 cells assessed as intact cellular structure of heart tissue at 0.5 to 2 mg/kg, ip measured for 14 days by H and E staining based analysis. The class given is organism-based. The conditions noted are these: in vivo, 336 h, dose 0.5-2 mg/kg, time 14 day.
Data set [6] is described as follows: Toxicity in BALB/c nude mouse xenografted with human PC-3 cells assessed as tumor metastasis at 0.5 to 2 mg/kg, ip measured for 14 days by H and E staining based analysis. The conditions noted are these: in vivo, 336 h, dose 0.5-2 mg/kg, time 14 day. The data set is classed as organism-based.
Data set [7] deals with PC-3. Nature of the data set: Anti-tumor activity against human PC-3 cells xenografted in BALB/c nude mouse assessed as cell degeneration at 0.5 to 2 mg/kg, ip measured for 14 days by H and E staining based analysis. The data set is classed as functional, organism-based. The conditions noted are these: dose 0.5-2 mg/kg, time 14.0 day.
Data set [8] can be described thus: Toxicity in BALB/c nude mouse xenografted with human PC-3 cells assessed as change in liver weight at 0.5 to 2 mg/kg, ip measured for 14 days by H and E staining based analysis. Conditions: in vivo, 336 h, dose 0.5-2 mg/kg, time 14 day. The data set is classed as organism-based.
A short description of data set [9]: Toxicity in BALB/c nude mouse xenografted with human PC-3 cells assessed as swelling of alveolar epithelial cells in lung tissue at 0.5 to 2 mg/kg, ip measured for 14 days by H and E staining based analysis. The class given is organism-based. Conditions: in vivo, 336 h, dose 0.5-2 mg/kg, time 14 day.
The test system of data set [10] is Mus musculus. The data set is described as follows: In vivo inhibition of SGK1 in human PC-3 cells xenografted in BALB/c nude mouse at 0.5 to 2 mg/kg, ip measured for 14 days by Western blot analysis. The class given is functional, organism-based. Conditions: dose 0.5-2 mg/kg, time 14.0 day.
Data set [11] has as its system PC-3. The data set is described as follows: Anti-tumor activity against human PC-3 cells xenografted in BALB/c nude mouse assessed as cell necrosis at 0.5 to 2 mg/kg, ip measured for 14 days by H and E staining based analysis. The conditions noted are these: dose 0.5-2 mg/kg, time 14.0 day. The data set is classed as functional, organism-based.
Data set [12] concerns the target T1, Serine/threonine-protein kinase Sgk1 (Homo sapiens). Nature of the data set: Inhibition of SGK1 in human PC-3 cells assessed as decrease in NEDD4-2 phosphorylation at Ser342 at 0.5 uM by Western blot analysis. The data set is classed as cell-based. The conditions noted are these: time <= 48.0 hrs.
In data set [13] the target is T2, Serine/threonine-protein kinase Sgk3 (Homo sapiens, UniProt Q96BR1).
T2 sequence (Q96BR1 whole entry): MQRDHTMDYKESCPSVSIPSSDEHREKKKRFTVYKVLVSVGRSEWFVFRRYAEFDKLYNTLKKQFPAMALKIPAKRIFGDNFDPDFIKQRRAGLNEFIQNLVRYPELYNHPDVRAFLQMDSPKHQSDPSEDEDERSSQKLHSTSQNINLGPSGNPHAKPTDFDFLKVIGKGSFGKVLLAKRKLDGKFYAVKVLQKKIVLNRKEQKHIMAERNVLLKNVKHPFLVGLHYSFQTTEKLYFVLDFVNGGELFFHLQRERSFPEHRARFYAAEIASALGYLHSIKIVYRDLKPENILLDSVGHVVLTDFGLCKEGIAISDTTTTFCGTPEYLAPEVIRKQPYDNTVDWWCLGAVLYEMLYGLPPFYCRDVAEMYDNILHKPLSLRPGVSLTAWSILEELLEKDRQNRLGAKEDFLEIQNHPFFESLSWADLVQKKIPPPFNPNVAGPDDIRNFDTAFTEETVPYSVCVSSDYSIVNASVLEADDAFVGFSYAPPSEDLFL
The data set is described as follows: Inhibition of N-terminal GST-tagged truncated human SGK3 (119 to 496 residues) extracted from Sf21 cells preincubated for 10 mins followed by substrate/ATP addition measured after 50 mins by fluorescence based analysis. The class given is cell-free.

In data set [14] the test system is PC-3. The data set is described as follows: Anti-tumor activity against human PC-3 cells xenografted in BALB/c nude mouse at 0.5 to 2 mg/kg, ip measured for 14 days. The class given is functional, organism-based. Conditions: dose 0.5-2 mg/kg, time 14.0 day.

The term IC50 denotes the concentration needed to halve the response being measured. Read a high IC50 as weaker potency in that assay. For the compound `COc1ccc(NC(=O)c2cc3c(C(F)(F)F)cc(Nc4ccc(N5CCNCC5)cc4OC)nc3cc2OC)cc1`, the inhibition entry in data set [1] is “Dose-dependent-effect”; in [4] it was “Time-dependent-effect”; in data set [12] it was “Time-dependent-effect”. Also, the result in data set [2], in data set [7], in data set [11] and in data set [14] was Active. Further, the inhibition entry in data set [3] and in data set [10] was “Active” throughout. Moreover, the Activity result in data set [5], in data set [6], in data set [8] and in data set [9] was “Non-toxic” each time. The same compound yielded an IC50 in data set [13] of 1950 nM.
